Values quoted from earlier work as cited in patent US11441162B2, “Human gut microbiome-derived biosynthetic enzymes for production of fatty acid amides” (Massachusetts Institute of Technology, priority 2019, dated 2022).

Biological target: T1, GPR119 (Homo sapiens, UniProt Q8TDV5)
T1 sequence (Q8TDV5 1-335): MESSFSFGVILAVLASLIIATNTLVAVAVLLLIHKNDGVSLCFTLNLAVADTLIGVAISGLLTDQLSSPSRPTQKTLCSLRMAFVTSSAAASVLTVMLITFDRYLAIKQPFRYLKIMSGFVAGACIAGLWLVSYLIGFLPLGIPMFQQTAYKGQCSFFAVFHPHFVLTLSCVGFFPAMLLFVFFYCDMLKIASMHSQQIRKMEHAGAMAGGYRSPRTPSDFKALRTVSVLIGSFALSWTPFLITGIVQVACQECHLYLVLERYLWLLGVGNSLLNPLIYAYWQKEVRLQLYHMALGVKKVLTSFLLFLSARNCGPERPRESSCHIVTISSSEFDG
Conditions: previously reported human microbiome-derived FAA GPCR modulator; read-out: GPR119 agonist at (previously reported); cited from earlier work

CCCCCCCC/C=C\CCCCCCCC(=O)NC(CO)CO [oleoyl serinol]
EC50: 7 µM
